Columns and labels:
[1] = tested on: Human Platelet Aggregation; test: Measurement of in vitro human platelet aggregation using PRP (collagen-induced, aggregometer light transmittance); assay type: cell-based; details: platelet aggregation inhibition in human PRP; collagen final concentration 5 µg/ml; 37°C
Description: Healthy male volunteers who had not taken any medicines for at least two weeks were selected as subjects. Blood was collected from the forearm vein of each subject on an empty stomach using a #19 needle and a plastic syringe preliminarily charged with 1/10 volume of a 3.8% sodium citrate solution. Immediately after the blood collection, the syringe was shaken gently to mix the blood with the sodium citrate solution. The mixed blood was centrifuged (1100 rpm, 250 g) at room temperature for 15 minutes and the rotation was stopped without applying the brake. Then, the supernatant was collected with a graduated pipette to obtain platelet-rich plasma (PRP). The PRP was stored at room temperature. The blood remaining after the centrifugation was further centrifuged (3500 rpm, 1500 g) at room temperature for 15 minutes and the rotation was stopped without applying the brake. The supernatant was collected to obtain platelet-poor plasma (PPP). After the preparation of the PRP, the number of platelets was counted and only samples containing 2 x 10^8 or more of platelets per milliliter were subjected to the following experiments.
Platelet aggregation was measured using an 8-channel aggregometer (Hematracer, Nikoh Bioscience, Tokyo, Japan) on the basis of the change in light transmittance through the PRP as follows.
First, the PPP and PRP (each 200 µl) were placed in glass cuvettes and incubated at 37°C. Thereafter, the transmittance was measured. The transmittance of the PPP was defined as 100% and that of the PRP as 0%.
Then, 10 µl of physiological saline or a sample-containing physiological saline was added to the PRP and incubated at 37°C for one minute. A collagen solution (10 µl) at a concentration of 100 µg/ml was added to the PRP-containing solution (final concentration: 5 µg/ml) to induce aggregation and thereafter the transmittance was measured over 7 minutes. After the aggregation with collagen and ADP was confirmed, only those samples in which the maximum percent aggregation with collagen was at least 70% were subjected to the experiment.
The sample was dissolved in physiological saline to give a concentration of 2.2 x 10^-2 M and a 2-fold dilution series was prepared for use in the experiments. The samples insoluble in the physiological saline were dissolved in physiological saline containing 10% DMSO (dimethyl sulfoxide).
The results were calculated as follows: Percent Aggregation inhibition =(Maximum percent aggregation upon the addition of sample)/(Maximum percent aggregation upon the addtion of physiological saline) [formula]
A graph was constructed by plotting the percent of aggregation inhibition against the sample concentration and the concentration at which the aggregation was inhibited by 50% (IC50) was calculated from the graph.

[2] = Oral administration test: time course of the concentration in plasma after oral administration; assay type: in vivo; details: male SD rats, 10 mg per kg, 30, 60 and 120 minutes after administration, HPLC, mean of three rats
Description: Male SD rats which had been starved from the previous day were used in this experiment. Two test substances, the compounds of Example 4 and Comparative Example 1, were dissolved in distilled water and administered into the stomach of rats with an oral probe. Each compound was administered to each rat in an amount of 10 mg per kg of body weight. Blood samples were collected 30, 60 and 120 minutes after the administration. The concentration of each compound which was in an active state (i.e., free carboxylic acid) in plasma was determined by HPLC.
In this Figure, the horizontal axis represents the time after the oral administration and the vertical axis represents the concentration of the active form of each compound in plasma. Each point represents the mean value for three rats and the standard error. […] When the peak values at 30 minutes after the oral administration are compared, the difference was about 10 times as great.

| SMILES | IC50 [1] [µM] | concentration of the active form (free carboxylic acid) in plasma, compared with Comparative Example 1 [2] |
| --- | --- | --- |
| CCC(NC(=O)c1ccc(C(=N)N2CCOCC2)cc1)C(C)(C)C(=O)N1CCC(CC(=O)O)CC1 (stereo not drawn) [Example 2, N-(N-(9-(4-morpholinoimidoyl)benzoyl)-β-ethyl-α,α-dimethyl-β-alanyl)-4-piperidineacetic acid] | 0.22 |  |
| CCC(NC(=O)c1ccc(C(=N)N2CCOCC2)cc1F)C(C)(C)C(=O)N1CCC(CC(=O)O)CC1 (stereo not drawn) [Example 4, N-{N-(4-(4-morpholinoimidoyl)-2-fluorobenzoyl)-β-ethyl-α,α-dimethyl-β-alanyl)-4-piperidineacetic acid] | 0.15 | significantly higher concentration in plasma than the compound of Comparative Example 1 at every point of determination |
| CCC(NC(=O)c1ccc(C(=N)N2CCCCC2)cc1F)C(C)(C)C(=O)N1CCC(CC(=O)O)CC1 (stereo not drawn) [Example 8, N-(N-(4-(1-piperidinoimidoyl)-2-fluorobenzoyl)-β-ethyl-α,α-dimethyl-β-alanyl)-4-piperidineacetic acid] | 0.22 |  |
| CCC(NC(=O)c1ccc(C(=N)N2CCCC2)cc1F)C(C)(C)C(=O)N1CCC(CC(=O)O)CC1 (stereo not drawn) [Example 10, N-(N-(4-(1-pyrrolidinoimidoyl)-2-fluorobenzoyl)-β-ethyl-α,α-dimethyl-β-alanyl)-4-piperidineacetic acid] | 0.087 |  |
| CCC(NC(=O)c1ccc(C(=N)N2CCC(=O)CC2)cc1F)C(C)(C)C(=O)N1CCC(CC(=O)O)CC1 (stereo not drawn) [Example 12, N-(N-(4-(1-4-piperidonoimidoyl)-2-fluorobenzoyl)-β-ethyl-α,α-dimethyl-β-alanyl)-4-piperidineacetic acid] | 0.12 |  |
| CCC(NC(=O)c1ccc(C(=N)N2CCC(O)CC2)cc1F)C(C)(C)C(=O)N1CCC(CC(=O)O)CC1 (stereo not drawn) [Example 14, N-(N-(4-(4-hydroxy-1-piperidinoimidoyl)-2-fluorobenzoyl)-β-ethyl-α,α-dimethyl-β-alanyl)-4-piperidineacetic acid] | 0.052 |  |
| CCC(NC(=O)c1ccc(C(=N)N2CCSC2)cc1F)C(C)(C)C(=O)N1CCC(CC(=O)O)CC1 (stereo not drawn) [Example 16, N-(N-(4-(3-thizolidinoimidoyl)-2-fluorobenzoyl)-β-ethyl-α,α-dimethyl-β-alanyl)-4-piperidineacetic acid] | 0.043 |  |
| CCC(NC(=O)c1ccc(C(=N)N2CCCCCC2)cc1F)C(C)(C)C(=O)N1CCC(CC(=O)O)CC1 (stereo not drawn) [Example 18, N-(N-(4-(1-hexamethyleneiminoimidoyl)-2-fluorobenzoyl)-β-ethyl-α,α-dimethyl-β-alanyl)-4-piperidineacetic acid] | 0.23 |  |
| CCC(NC(=O)c1ccc(C(=N)N2CCSCC2)cc1F)C(C)(C)C(=O)N1CCC(CC(=O)O)CC1 (stereo not drawn) [Example 20, N-(N-(4-(N-thiomorpholinoimidoyl)-2-fluorobenzoyl)-β-ethyl-α,α-dimethyl-β-alanyl)-4-piperidineacetic acid] | 0.12 |  |
| CCC(NC(=O)c1ccc(C(=N)N2CCN(C)CC2)cc1F)C(C)(C)C(=O)N1CCC(CC(=O)O)CC1 (stereo not drawn) [Example 22, N-(N-(4-(4-methyl-1-piperazinoimidoyl)-2-fluorobenzoyl)-β-ethyl-α,α-dimethyl-β-alanyl)-4-piperidineacetic acid] | 0.069 |  |
| CCC(NC(=O)c1ccc(C(=N)N2CCN(c3ccccc3)CC2)cc1F)C(C)(C)C(=O)N1CCC(CC(=O)O)CC1 (stereo not drawn) [Example 24, N-(N-(4-(4-phenyl-1-piperazinoimidoyl)-2-fluorobenzoyl)-β-ethyl-α,α-dimethyl-β-alanyl)-4-piperidineacetic acid] | 0.057 |  |
| CCC(NC(=O)c1ccc(C(=N)N2CCN(c3ccc(F)cc3)CC2)cc1F)C(C)(C)C(=O)N1CCC(CC(=O)O)CC1 (stereo not drawn) [Example 26, N-(N-(4-(4-(4-fluorophenyl)-1-piperazinoimidoyl)-2-fluorobenzoyl)-β-ethyl-α,α-dimethyl-β-alanyl)-4-piperidineacetic acid] | 0.087 |  |
| CC(C)(C(=O)N1CCC(CC(=O)O)CC1)C(NC(=O)c1ccc(C(=N)N2CCOCC2)cc1)c1ccccc1 (centres unmarked) [Example 28] | 0.24 |  |

Reference: EP0852225B1, “FIBRINOGEN RECEPTOR ANTAGONISTS AND MEDICINAL PREPARATIONS CONTAINING THE SAME AS THE ACTIVE INGREDIENT” (NIPPON STEEL CORPORATION, priority 1996, dated 1997)
